Where “and” joins values, the source holds several entries; their conditions need not be identical. Identical values can stand only once.
Assays:
rumen fluid [1] = assay: Methane and volatile fatty acid production by buffered rumen fluid incubated with hay barley mix (Example 1); type: cell-based, cow; details: 500 μg/ml; 16 hours, 39° C.
Procedure: Thirty ml of a 33% buffered solution of rumen fluid withdrawn from a rumen canulated cow was incubated with 0.3 g of a 50:50 hay barley mix at 39° C. under anaerobic conditions.
(§1) After 16 hours the volume of gas produced and the percentage of methane in the headspace was measured and the resultant fermentation fluid was analysed for volatile fatty acids by HPLC.
Sandalwood oil, and control oils of commercial essential oil mixes or pure oils of eugenol or cinnamaldehyde were added in the amount of 500 μg/ml to the 30 ml buffered solution of rumen fluid prior to incubation. Sandalwood oil was obtained from Cardiff University and Sigma [SAFC (e.g. W30,050-0 lot no. 03722CC-396) and Sandalwood oil manufactured by Fluka (355263/1 lot no. 52706264).]

Listeria monocytogenes = assay: Listeria survival in Rusitec (Example 5); type: cell-based; details: 100 μg/ml; 24h after pathogen addition
Procedure: Volatile fatty acids, methane and bacterial numbers were measured on days 18 and 19 of the experiment. On day 19, Listeria inocula was added and it numbers traced over the last 24 hr of the experiment.

[2] = Further sandalwood analogues: volatile fatty acid and methane production (Example 7, Table 14); type: cell-based
Procedure: (§2) Further testing of sandalwood analogues was conducted following the protocols described in Examples 3 and 5.

[3] = Further sandalwood analogues: CH4 per bottle, compound in DMSO or ETOH (Example 7, Table 15); type: cell-based; details: for CH4: single bottles rep a, b, c
Procedure: as §2

[4] = test system: rumen contents in Rusitec; assay: Rusitec with Sandalwood oil and Javanol (Example 5); type: cell-based, cattle; details: 100 μg/ml
Procedure: The rumen-simulation technique (Rusitec) was used as described by Czerkawski and Breckenridge (1977). The nominal volume in each reaction vessel was 850 ml and the dilution rate was set at 0.88 per day, the infused liquid being artificial saliva (McDougall, Biochem J 1948 43, 99-109) at pH 8.4. Inocula for the fermentation vessels were obtained from a pooled sample (liquid and particulate rumen contents) from three rumen-cannulated cattle fed on a conserved diet. On the first day of the experiment 300 ml of strained rumen fluid, 300 ml of water and 300 ml of artificial saliva were placed in each reaction vessel. Solid rumen contents (80 g) were weighed into a nylon bag and one of these was placed inside the food container in each vessel together with a bag (20 g/d) of a basal diet of grass hay, barley, molasses, soyabean meal and a vitamin and mineral mixture. The food was provided in nylon bags, pore size 50 μm, which were gently agitated in the liquid phase. Two bags were present at any time and one bag was replaced each day to give a 48 h incubation. The bags that were removed from the vessels were placed in plastic bags, and their contents washed and squeezed with 40 ml of artificial saliva. This was done twice for each bag, and the combined washings were poured back into the reaction vessels. Fermentation vessels were flushed with anaerobic grade CO2 before filling, after filling, and then every day during feeding (when the nylon bags with the food were changed). The duration of the experiment was 19 days, during which four vessels received Sandalwood oil (added the basal diet to reach an initial concentration of 100 μg/ml) four vessels received Javanol (added the basal diet to reach an initial concentration of 100 μg/ml) the remaining vessels were controls. Volatile fatty acids, methane and bacterial numbers were measured on days 18 and 19 of the experiment. On day 19, Listeria inocula was added and it numbers traced over the last 24 hr of the experiment.

rumen fluid [5] = assay: Methane production by buffered rumen fluid, sandalwood oil and synthetic replacements (Example 4); type: cell-based, cow; details: 5, 50 or 100 or 500 pg/ml; 16 hours
Procedure: Thirty ml of a 33% buffered solution of rumen fluid withdrawn from a rumen canulated cow was incubated with 0.3 g of a 50:50 hay barley mix at 39° C. under anaerobic conditions
as §1
Sandalwood oil from either Fluka or SAFC and two different batches of Javanol (Givaudan) or a single batch of Santaliff (International Flavors & Fragrances) (both Javanol and Santaliff are artifical Sandalwood replacements) were added in the amount of 5, 50 or 100 or 500 pg/ml to the 30 ml buffered solution of rumen fluid prior to incubation.

SMILES | Acetate ([2]; 5 μg/ml) | Butyrate ([2]; 5 μg/ml) | Methane ([2]; 5 μg/ml) | Propionate ([2]; 5 μg/ml) | TVFA ([2]; 5 μg/ml) | Acetate ([2]; 50 μg/ml) | Butyrate ([2]; 50 μg/ml) | Methane ([2]; 50 μg/ml) | Propionate ([2]; 50 μg/ml) | TVFA ([2]; 50 μg/ml) | Acetate ([2]; 100 μg/ml) | Butyrate ([2]; 100 μg/ml) | Methane ([2]; 100 μg/ml) | Propionate ([2]; 100 μg/ml) | TVFA ([2]; 100 μg/ml) | Acetate ([2]; 500 μg/ml) | Butyrate ([2]; 500 μg/ml) | Methane ([2]; 500 μg/ml) | Propionate ([2]; 500 μg/ml) | TVFA ([2]; 500 μg/ml) | also measured
O=CC=Cc1ccccc1 [Cinnamaldehyde] | – | – | – | – | – | – | – | – | – | – | – | – | – | – | – | – | – | – | – | – | Acetate formation (rumen fluid [1]): 2832 μmole/g of feed; Butyrate formation (rumen fluid [1]): 73 μmole/g of feed; Methane formation (rumen fluid [1]): 1471 μmole/g of feed; Propionate formation (rumen fluid [1]): 492 μmole/g of feed; Total volatile fatty acids formation (rumen fluid [1]): 3398 μmole/g of feed
CC(C)=CCCC(C)=CC=O [Citral] | – | – | – | – | – | – | – | – | – | – | – | – | – | – | – | – | – | – | – | – | Acetate formation (rumen fluid [1]): 2754 μmole/g of feed; Butyrate formation (rumen fluid [1]): 72 μmole/g of feed; Methane formation (rumen fluid [1]): 1461 μmole/g of feed; Propionate formation (rumen fluid [1]): 534 μmole/g of feed; Total volatile fatty acids formation (rumen fluid [1]): 3361 μmole/g of feed
C=CCc1ccc(O)c(OC)c1 [Eugenol] | – | – | – | – | – | – | – | – | – | – | – | – | – | – | – | – | – | – | – | – | Acetate formation (rumen fluid [1]): 2817 μmole/g of feed; Butyrate formation (rumen fluid [1]): 73 μmole/g of feed; Methane formation (rumen fluid [1]): 1436 μmole/g of feed; Propionate formation (rumen fluid [1]): 590 μmole/g of feed; Total volatile fatty acids formation (rumen fluid [1]): 3479 μmole/g of feed
CC1(CO)CC1CC1CC2CC2(C)C1(C)C (stereo not shown) [Javanol, (1-Methyl-2-(1,2,2-trimethylbicyclo[3.1.0]hex-3-ylmethyl)cyclopropyl)methanol] | 2401 μmol/g of feed added | 538 μmol/g of feed added | 978 μmol/g of feed added | 493 μmol/g of feed added | 3432 μmol/g of feed added | 2622 μmol/g of feed added | 593 μmol/g of feed added | 904 μmol/g of feed added | 524 μmol/g of feed added | 3739 μmol/g of feed added | 2504 μmol/g of feed added | 499 μmol/g of feed added | 859 μmol/g of feed added | 542 μmol/g of feed added | 3545 μmol/g of feed added | 2045 μmol/g of feed added | 229 μmol/g of feed added | 744 μmol/g of feed added | 833 μmol/g of feed added | 3107 μmol/g of feed added | Listeria monocytogenes survival (Listeria monocytogenes): not; CH4 (mean of rep a-c) ([3]; 150 ug/30 ml in 200 ul DMSO): 913.6635 µmol/g; CH4 ([3]; 150 ug/30 ml in 200 ul DMSO, listed as Javanol batch no. 9000699712): 956.9591 µmol/g and 888.4071 µmol/g and 895.6242 µmol/g; CH4 (mean of rep a-c) ([3]; 150 ug/30 ml in 200 ul ETOH): 1373.522 µmol/g; CH4 ([3]; 150 ug/30 ml in 200 ul ETOH, listed as Javanol batch no. 9000699712): 1403.051 µmol/g and 1381.609 µmol/g and 1335.905 µmol/g; CH4 (mean of rep a-c) ([3]; 15000 ug/30 ml in 200 ul DMSO): 605.2838 µmol/g; CH4 ([3]; 15000 ug/30 ml in 200 ul DMSO, listed as Javanol batch no. 9000699712): 647.283 µmol/g and 563.0216 µmol/g and 605.5467 µmol/g; CH4 (mean of rep a-c) ([3]; 15000 ug/30 ml in 200 ul ETOH): 1158.255 µmol/g; CH4 ([3]; 15000 ug/30 ml in 200 ul ETOH, listed as Javanol batch no. 9000699712): 1145.346 µmol/g and 1230.103 µmol/g and 1099.314 µmol/g; 48 h DM degradation (%) [4]: 33.6%; Acetate [4]: 23.9 mmol/day; Bacteria counts Cellulolytic [4]: 1.9e+06 mL⁻¹; Bacteria counts Total [4]: 4.9e+09 mL⁻¹; Butyrate [4]: 4.4 mmol/day; Methane production [4]: decreased; Propionate [4]: 16.7 mmol/day; Total VFA [4]: 45.0 mmol/day; VFA production [4]: no effect; CH4 ([4]; days 18 and 19): 2.51 mmol/day; methane compared to the control experiments (rumen fluid [5]): significantly decreased
CC1C2CC(CC2C2CCC(O)CC2)C1(C)C (stereo not shown) [Sandela, 4-(5,5,6-Trimethylbicyclo[2.2.1]hept-2-yl)cyclohexan-1-ol] | 2223 μmol/g of feed added | 482 μmol/g of feed added | 996 μmol/g of feed added | 465 μmol/g of feed added | 3169 μmol/g of feed added | 2235 μmol/g of feed added | 513 μmol/g of feed added | 1052 μmol/g of feed added | 450 μmol/g of feed added | 3198 μmol/g of feed added | 2297 μmol/g of feed added | 515 μmol/g of feed added | 1078 μmol/g of feed added | 477 μmol/g of feed added | 3289 μmol/g of feed added | 2270 μmol/g of feed added | 317 μmol/g of feed added | 928 μmol/g of feed added | 680 μmol/g of feed added | 3267 μmol/g of feed added | –
CCC(=CCC1CC=C(C)C1(C)C)CO (stereo not shown) [Sanjinol, 2-ethyl-4(2,2,3-trimethyl-3-cyclopentenyl)-2-buten-1-ol] | 1978 μmol/g of feed added | 448 μmol/g of feed added | 1107 μmol/g of feed added | 426 μmol/g of feed added | 2852 μmol/g of feed added | 2192 μmol/g of feed added | 466 μmol/g of feed added | 835 μmol/g of feed added | 579 μmol/g of feed added | 3237 μmol/g of feed added | 2359 μmol/g of feed added | 512 μmol/g of feed added | 795 μmol/g of feed added | 697 μmol/g of feed added | 3568 μmol/g of feed added | 1849 μmol/g of feed added | 225 μmol/g of feed added | 741 μmol/g of feed added | 744 μmol/g of feed added | 2818 μmol/g of feed added | CH4 (mean of rep a-c) ([3]; 150 ug/30 ml in 200 ul DMSO): 938.5618 µmol/g; CH4 ([3]; 150 ug/30 ml in 200 ul DMSO): 1107.671 µmol/g and 793.8945 µmol/g and 914.1195 µmol/g; CH4 (mean of rep a-c) ([3]; 150 ug/30 ml in 200 ul ETOH): 1153.269 µmol/g; CH4 ([3]; 150 ug/30 ml in 200 ul ETOH): 1064.879 µmol/g and 1232.288 µmol/g and 1162.641 µmol/g; CH4 (mean of rep a-c) ([3]; 15000 ug/30 ml in 200 ul DMSO): 743.6664 µmol/g; CH4 ([3]; 15000 ug/30 ml in 200 ul DMSO): 615.569 µmol/g and 893.1559 µmol/g and 722.2742 µmol/g; CH4 (mean of rep a-c) ([3]; 15000 ug/30 ml in 200 ul ETOH): 1158.419 µmol/g; CH4 ([3]; 15000 ug/30 ml in 200 ul ETOH): 1063.899 µmol/g and 1351.649 µmol/g and 1059.708 µmol/g
CC(=CCC1CC=C(C)C1(C)C)CO (stereo not shown) [Santaliff, 2-Methyl-4-(2,2,3-trimethyl-3-cyclopenten-1-yl)-2-buten-1-ol] | 2174 μmol/g of feed added | 458 μmol/g of feed added | 1031 μmol/g of feed added | 466 μmol/g of feed added | 3098 μmol/g of feed added | 2142 μmol/g of feed added | 490 μmol/g of feed added | 1052 μmol/g of feed added | 442 μmol/g of feed added | 3074 μmol/g of feed added | 2301 μmol/g of feed added | 462 μmol/g of feed added | 844 μmol/g of feed added | 543 μmol/g of feed added | 3305 μmol/g of feed added | 2101 μmol/g of feed added | 296 μmol/g of feed added | 801 μmol/g of feed added | 741 μmol/g of feed added | 3138 μmol/g of feed added | methane compared to the control experiments (rumen fluid [5]): significantly decreased

Reference: patent publication US20110165277A1, “Biological Materials and Uses Thereof” (priority 2008, published 2011)
